test system: P. falciparum (NF54 or 3D7 strain); assay: Assay for P. falciparum proliferation in infected human blood cells (SYBR Green); format: cell-based, Plasmodium falciparum; settings: NF54 or 3D7 infected human erythrocytes, 72 hours; read-out: EC50 (nM), inhibitory efficacy in delaying P. falciparum proliferation in infected human blood cells
How it was run: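 NF54 or 3D7 parasites in O+ human erythrocytes at 2.5% hematocrit and 0.3% parasitemia final, exposed to compounds 72 h at 37 °C under 93% N2/4% CO2/3% O2.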

EC50 [nM]	Compound
252	C[C@@H](N)C(=O)Nc1ccc(-c2cnc3cnc(C(=O)N(C)c4ccc(C#N)cc4)cn23)cc1 [Compound 282, 3-{4-[(2R)-2-aminopropanamido]phenyl}-N-(4-cyanophenyl)-N-methylimidazo[1,2-a]pyrazine-6-carboxamide]

same assay, conditions: Plasmodium falciparum, 3D7|NF54, Erythrocyte, in Homo sapiens, 72 h, NF54 or 3D7 infected human erythrocytes, 72 hours; read-out: EC50 (nM), inhibitory efficacy in delaying P. falciparum proliferation in infected human blood cells

EC50 [nM]	Compound
> 8280	CN(C(=O)c1cn2c(-c3cc4cc(C#N)ccc4[nH]3)cnc2cn1)c1ccc(C#N)cc1 [Compound 252]

same assay, conditions: Plasmodium falciparum, Erythrocyte, 72 h, NF54 or 3D7 infected human erythrocytes, 72 hours; read-out: EC50 (nM), inhibitory efficacy in delaying P. falciparum proliferation in infected human blood cells

EC50 [nM]	Compound
302	COc1ncc(C)cc1N(C)C(=O)c1cn2c(-c3ccc(C(F)(F)F)cc3)cnc2cn1 [Compound 250, N-(2-methoxy-5-methylpyridin-3-yl)-N-methyl-3-[4-(trifluoromethyl)phenyl]imidazo[1,2-a]pyrazine-6-carboxamide]
5520	Cc1cncc(N(C)C(=O)c2cn3c(-c4ccc(C(F)(F)F)cc4)cnc3cn2)c1 [Compound 251, N-methyl-N-(5-methylpyridin-3-yl)-3-[4-(trifluoromethyl)phenyl]imidazo[1,2-a]pyrazine-6-carboxamide]
76	CN(C(=O)c1cn2c(-c3ccc(-c4ccn[nH]4)cc3)cnc2cn1)c1ccc(F)c(F)c1 [Compound 258, N-(3,4-difluorophenyl)-N-methyl-3-[4-(1H-pyrazol-5-yl)phenyl]imidazo[1,2-a]pyrazine-6-carboxamide]
414	CN(C(=O)c1ccc(Cl)cc1)c1cn2c(-c3ccc(C(F)(F)F)cc3)cnc2cn1 [Compound 259, 4-chloro-N-methyl-N-{3-[4-(trifluoromethyl)phenyl]imidazo[1,2-a]pyrazin-6-yl}benzamide]
97	CNc1nnc(-c2ccc(-c3cnc4cnc(C(=O)N(C)c5ccc(Cl)nc5)cn34)cc2)s1 [Compound 262, N-(6-chloropyridin-3-yl)-N-methyl-3-{4-[5-(methylamino)-1,3,4-thiadiazol-2-yl]phenyl}imidazo[1,2-a]pyrazine-6-carboxamide]
436	Cc1ccc(N(C)Cc2cn3c(-c4ccc(C(F)(F)F)cc4)cnc3cn2)cc1 [Compound 263, N,4-dimethyl-N-({3-[4-(trifluoromethyl)phenyl]imidazo[1,2-a]pyrazin-6-yl}methyl)aniline]
277	CN(C(=O)c1ccc(Cl)cn1)c1cn2c(-c3ccc(C(F)(F)F)cc3)cnc2cn1 [Compound 264, 5-chloro-N-methyl-N-{3-[4-(trifluoromethyl)phenyl]imidazo[1,2-a]pyrazin-6-yl}pyridine-2-carboxamide]
318	CN(C(=O)c1cn2c(-c3ccc(C(F)F)cc3)cnc2cn1)c1ccc(Cl)nc1 [Compound 265, N-(6-chloropyridin-3-yl)-3-[4-(difluoromethyl)phenyl]-N-methylimidazo[1,2-a]pyrazine-6-carboxamide]
424	CN(C(=O)c1ccc(Cl)nc1)c1cn2c(-c3ccc(C(F)(F)F)cc3)cnc2cn1 [Compound 267, 6-chloro-N-methyl-N-{3-[4-(trifluoromethyl)phenyl]imidazo[1,2-a]pyrazin-6-yl}pyridine-3-carboxamide]
112	CN(C(=O)c1ccc(F)cc1)c1cn2c(-c3ccc(C(F)(F)F)cc3)cnc2cn1 [Compound 268, 4-fluoro-N-methyl-N-{3-[4-(trifluoromethyl)phenyl]imidazo[1,2-a]pyrazin-6-yl}benzamide]
295	CN(C(=O)c1cn2c(-c3ccc(N)nc3)cnc2cn1)c1ccc(C#N)cc1 [Compound 272, 3-(6-aminopyridin-3-yl)-N-(4-cyanophenyl)-N-methylimidazo[1,2-a]pyrazine-6-carboxamide]
224	N#Cc1ccc2c(c1)CCCN2C(=O)c1cn2c(-c3ccc(C(F)(F)F)cc3)cnc2cn1 [Compound 274, 1-({3-[4-(trifluoromethyl)phenyl]imidazo[1,2-a]pyrazin-6-yl}carbonyl)-1,2,3,4-tetrahydroquinoline-6-carbonitrile]
468	CN(C(=O)c1cn2c(-c3ccc(C(F)(F)F)cc3F)cnc2cn1)c1ccc(Cl)nc1 [Compound 275, N-(6-chloropyridin-3-yl)-3-[2-fluoro-4-(trifluoromethyl)phenyl]-N-methylimidazo[1,2-a]pyrazine-6-carboxamide]
310	CN(C(=O)c1ccc(C(F)(F)F)cc1)c1cn2c(-c3ccc(C(F)(F)F)cc3)cnc2cn1 [Compound 276, N-methyl-4-(trifluoromethyl)-N-{3-[4-(trifluoromethyl)phenyl]imidazo[1,2-a]pyrazin-6-yl}benzamide]
1130	Cc1ccc(N(C)C(=O)c2cn3c(-c4ccc(C(F)(F)F)cc4)cnc3cn2)cn1 [Compound 277, N-methyl-N-(6-methylpyridin-3-yl)-3-[4-(trifluoromethyl)phenyl]imidazo[1,2-a]pyrazine-6-carboxamide]
454	CC(=O)Nc1ccc(-c2cnc3cnc(C(=O)N(C)c4ccc(Cl)nc4)cn23)cc1 [Compound 279, N-(6-chloropyridin-3-yl)-3-(4-acetamidophenyl)-N-methylimidazo[1,2-a]pyrazine-6-carboxamide]
178	CN(C(=O)c1ccc(C#N)cc1)c1cn2c(-c3ccc(C(F)(F)F)cc3)cnc2cn1 [Compound 283, 4-cyano-N-methyl-N-{3-[4-(trifluoromethyl)phenyl]imidazo[1,2-a]pyrazin-6-yl}benzamide]

The next lines start with the compound.

Compound	EC50 [nM]
CCOC(=O)c1cnc2cnc(C(=O)N(C)c3ccc(Cl)nc3)cn12 [Compound 253, ethyl 6-[(6-chloropyridin-3-yl)(methyl)carbamoyl]imidazo[1,2-a]pyrazine-3-carboxylate]	2460
CCOC(=O)Nc1ccc(-c2cnc3cnc(C(=O)N(C)c4ccc(C#N)cc4)cn23)cc1 [Compound 254, ethyl N-(4-{6-[(4-cyanophenyl)(methyl)carbamoyl]imidazo[1,2-a]pyrazin-3-yl}phenyl)carbamate]	67
CN(C(=O)c1cn2c(-c3ccc(NC(=O)C4CCC[C@H]4N)cc3)cnc2cn1)c1ccc(C#N)cc1 (stereo partly drawn) [Compound 255, 3-(4-{[(1S,2R)-2-aminocyclopentane]amido}phenyl)-N-(4-cyanophenyl)-N-methylimidazo[1,2-a]pyrazine-6-carboxamide]	155
CC(C)[C@@H](N)CC(=O)Nc1ccc(-c2cnc3cnc(C(=O)N(C)c4ccc(C#N)cc4)cn23)cc1 [Compound 256, 3-{4-[(3S)-3-amino-4-methylpentanamido]phenyl}-N-(4-cyanophenyl)-N-methylimidazo[1,2-a]pyrazine-6-carboxamide]	240
CN(C(=O)c1cn2c(-c3ccc(-c4ccn[nH]4)cc3)cnc2cn1)c1ccc(F)cc1 [Compound 257, N-(4-fluorophenyl)-N-methyl-3-[4-(1H-pyrazol-5-yl)phenyl]imidazo[1,2-a]pyrazine-6-carboxamide]	92
COC(=O)Nc1ccc(-c2cnc3cnc(C(=O)N(C)c4ccc(C#N)cc4)cn23)cn1 [Compound 260, methyl N-(5-{6-[(4-cyanophenyl)(methyl)carbamoyl]imidazo[1,2-a]pyrazin-3-yl}pyridin-2-yl)carbamate]	399
CC(C)OC(=O)Nc1ccc(-c2cnc3cnc(C(=O)N(C)c4ccc(C#N)cc4)cn23)cc1 [Compound 261, Propan-2-yl N-(4-{6-[(4-cyanophenyl)(methyl)carbamoyl]imidazo[1,2-a]pyrazin-3-yl}phenyl)carbamate]	408
CC(C)[C@H](N)C(=O)Nc1ccc(-c2cnc3cnc(C(=O)N(C)c4ccc(C#N)cc4)cn23)cc1 [Compound 266, 3-{4-[(2S)-2-amino-3-methylbutanamido]phenyl}-N-(4-cyanophenyl)-N-methylimidazo[1,2-a]pyrazine-6-carboxamide]	234
C[C@@H](N)CC(=O)Nc1ccc(-c2cnc3cnc(C(=O)N(C)c4ccc(C#N)cc4)cn23)cc1 [Compound 269, 3-{4-[(3R)-3-aminobutanamido]phenyl}-N-(4-cyanophenyl)-N-methylimidazo[1,2-a]pyrazine-6-carboxamide]	651
CN(C(=O)c1cn2c(-c3ccc(NC(=O)C(N)C4CCC4)cc3)cnc2cn1)c1ccc(C#N)cc1 (stereo not shown) [Compound 270, 3-[4-(2-amino-2-cyclobutylacetamido)phenyl]-N-(4-cyanophenyl)-N-methylimidazo[1,2-a]pyrazine-6-carboxamide]	605
CN(C(=O)c1cn2c(-c3ccc(OCC#N)cc3)cnc2cn1)c1ccc(C#N)cc1 [Compound 273, 3-[4-(cyanomethoxy)phenyl]-N-(4-cyanophenyl)-N-methylimidazo[1,2-a]pyrazine-6-carboxamide]	186
CN(C(=O)c1cn2c(-c3ccc(NCC(C)(C)N)cc3)cnc2cn1)c1ccc(C#N)cc1 [Compound 278, 3-{4-[(2-amino-2-methylpropyl)amino]phenyl}-N-(4-cyanophenyl)-N-methylimidazo[1,2-a]pyrazine-6-carboxamide]	784
COc1ccc(-c2cnc3cnc(C(=O)N(C)c4ccc(Cl)nc4)cn23)c(F)c1 [Compound 280, N-(6-chloropyridin-3-yl)-3-(2-fluoro-4-methoxyphenyl)-N-methylimidazo[1,2-a]pyrazine-6-carboxamide]	707
CN(C)CCOc1ccc(-c2cnc3cnc(C(=O)N(C)c4ccc(C#N)cc4)cn23)cc1 [Compound 284, N-(4-cyanophenyl)-3-{4-[2-(dimethylamino)ethoxy]phenyl}-N-methylimidazo[1,2-a]pyrazine-6-carboxamide]	947
CC(C)[C@@H](N)C(=O)Nc1ccc(-c2cnc3cnc(C(=O)N(C)c4ccc(C#N)cc4)cn23)cc1 [Compound 286, 3-{4-[(2R)-2-amino-3-methylbutanamido]phenyl}-N-(4-cyanophenyl)-N-methylimidazo[1,2-a]pyrazine-6-carboxamide]	402

From patent US20150291598A1 (NOVARTIS AG, priority 2012, published 2015)
